# According to article PMC12635268, “Novel antimicrobial peptides and peptide-microbiome crosstalk in Appalachian salamander skin” (NPJ Biofilms and Microbiomes, 2025):
# Where two headings read alike, the source gives them in different places. Ends that are not written are not given here.
# Tests used:
# [1] = design: method as in Biomatik (vendor); conditions: 1.0 mg peptide in 1.0 ml solvent; peptides synthesized by Biomatik; ref Biomatik (vendor); cited from earlier work
# [2] = tested on: P. aeruginosa PA01 (Si); assay: microbe, parasite or virus in culture; assay type: cell-based
# Source text: Supplement 41522_2025_837_MOESM13_ESM.xlsx, sheet "Table_S13_ESKAPEE-MIC" | column: Bacterial MIC (µg/mL)
# [3] = tested on: K. pneumoniae 4640
# [4] = tested on: K. pneumoniae ATCC 13883; assay: microbe, parasite or virus in culture
# Method in brief: (§1)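 Each strain was exposed in duplicate to two-fold peptide dilutions (0.25 to 128 μg/mL) in cation-adjusted Mueller-Hinton broth at 1 × 10⁵ CFU/mL. After 20 h at 37 °C without shaking, the lowest concentration lacking visible growth was recorded following CLSI.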
# [5] = tested on: E. coli ATCC 35218; assay: microbe, parasite or virus in culture; conditions: E. coli 35218; Week 2 (12/14/2023)
# Method in brief: as §1
# [6] = tested on: E. coli ATCC 43888; assay: microbe, parasite or virus in culture
# Method in brief: as §1
# [7] = tested on: E. faecium ATCC 19434; assay: microbe, parasite or virus in culture
# Method in brief: as §1
# [8] = tested on: A. baumannii ATCC 17978; assay: microbe, parasite or virus in culture
# Method in brief: as §1
# [9] = tested on: E. faecium ATCC 49224; assay: microbe, parasite or virus in culture
# Method in brief: as §1
# [10] = tested on: S. aureus ATCC 43300; assay: microbe, parasite or virus in culture; conditions: S. aureus 43300; Week 2 (12/14/2023)
# Method in brief: as §1
# [11] = tested on: A. baumannii ATCC 19606; assay: microbe, parasite or virus in culture
# Method in brief: as §1
# [12] = tested on: P. aeruginosa MRSN 5519; assay: microbe, parasite or virus in culture
# Method in brief: as §1
# [13] = tested on: E. cloacae ATCC 13047; assay: microbe, parasite or virus in culture
# Method in brief: as §1
# [14] = tested on: S. aureus ATCC 25923; assay: microbe, parasite or virus in culture
# Method in brief: as §1
# [15] = tested on: K. pneumoniae ATCC 700603; assay: microbe, parasite or virus in culture; conditions: K. pneumoniae 700603; Week 2 (12/14/2023)
# Method in brief: as §1
# [16] = tested on: P. aeruginosa ATCC 27853; assay: microbe, parasite or virus in culture
# Method in brief: as §1
# [17] = tested on: E. cloacae ATCC 35549; assay: microbe, parasite or virus in culture
# Method in brief: as §1
# [18] = tested on: A. baumannii 5075; conditions: Week 2 (12/14/2023)
# [19] = tested on: P. aeruginosa PA01; assay: microbe, parasite or virus in culture; assay type: cell-based; conditions: P. aeruginosa 15692 (PAO1); Week 2 (12/14/2023)
# Protocol: Antimicrobial susceptibility testing of the 20 synthesized peptides against 17 bacterial strains of clinical relevance in the ESKAPEE panel was conducted using minimum inhibitory concentration (MIC) assays following the broth microdilution method outlined by Parker et al.[91]. The ESKAPEE panel is comprised of fourteen American Type Culture Collection (ATCC) strains and three Multidrug Resistant Organism Repository and Surveillance Network (MRSN) bacterial strains. These strains represent at least one drug-susceptible strain and one drug-resistant strain for each bacterium to assess drug efficacy across various resistance mechanisms. This panel is comprised of the following bacterial species and strains: E. faecium (ATCC 19434, ATCC 49224), S. aureus (ATCC 25923, ATCC 43300), K. pneumoniae (ATCC 700603, ATCC 13883, MRSN 1320), A. baumannii (ATCC 17978, ATCC 19606, MRSN 959), P. aeruginosa (ATCC 15692, ATCC 27853, MRSN 5519), E. cloacae (ATCC 13047, ATCC 35549), and E. coli (ATCC 35218, ATCC 43888). Bacteria were grown in cation-adjusted Mueller-Hinton broth (CAMHB) to achieve a final inoculum of 1 × 10⁵ CFU/mL. CAMHB is selected for its batch-to-batch reproducibility, low levels of antimicrobial inhibitors, and ability to support the growth of most bacterial pathogens.
# Briefly, lyophilized peptides were dissolved in 0.2% TFA + 0.4% BSA in water to 2.56 mg/mL, ultrasonicated for 20 min, diluted 10-fold into CAMHB, and then serially diluted 2-fold in 0.02% TFA + 0.04% BSA in CAMHB and assayed at a concentration of 0.25 to 128 μg/mL. Assays were set up using the Tecan Freedom EVO liquid handling robot and software (Tecan, Switzerland) with 50 μL of bacterial inoculum and 50 μL of peptide transferred into round-bottom 96-well microtiter plates. Each plate assay was performed in duplicate and incubated at 37 °C for 20 h without agitation. Bacterial growth was assessed using the BIOMIC V3 Image Analysis system (Giles Scientific, USA) and the MIC values were determined visually according to the Clinical and Laboratory Standards Institute (CLSI) guidelines.
# [20] = tested on: Batrachochytrium dendrobatidis Bd-GPL strain JEL404; conditions: slope of growth, positive = inhibition, negative = no inhibition
# Protocol: Bd-peptide challenge assays were conducted with the crude peptides extracted from the salamander skin secretions and with the 20 synthesized peptides. We followed methods by Pereria et al.[49] to conduct assays with the crude peptides using Bd-GPL strain JEL404 at 1 × 10^6 zoospores/mL. Briefly, skin peptide samples were pooled together based on species-site-injection (Table 1). Skin peptides samples were serially diluted 2-fold in MilliQ (Ultrapure Type 1) water and assayed at a concentration of 2.35–75 μg/mL based on starting peptide concentration available. For synthesized peptides, we conducted assays from 15.6 to 500 μg/ml. In both assays, we quantified percent inhibition of each well using slope of growth[90] in which positive values indicate inhibition and negative values indicate no inhibition.
substance,measurement,setting,value
RMIRRPPGFTPFR [PrAd-Eb10],Suggest solvent (solubility),[1],1.0mg peptide soluble in 1.0ml H2O
same,Bacterial MIC,"[2]; P. aeruginosa PA01 (Si), not typical ESKAPEE strain, Week 2 (12/14/2023)",>128.000 µg/mL
same,Bacterial MIC,"[3]; K. pneumoniae 4640, Week 2 (12/14/2023)",>128.000 µg/mL
same,Bacterial MIC,"[4]; K. pneumoniae 13883, Week 2 (12/14/2023)",>128.000 µg/mL
same,Bacterial MIC,[5],>128.000 µg/mL
same,Bacterial MIC,"[6]; E. coli 43888, Week 2 (12/14/2023)",>128.000 µg/mL
same,Bacterial MIC,"[7]; E. faecium 19434, Week 2 (12/14/2023)",>128.000 µg/mL
same,Bacterial MIC,"[8]; A. baumannii 17978, Week 2 (12/14/2023)",>128.000 µg/mL
same,Bacterial MIC,"[9]; E. faecium 49224, Week 2 (12/14/2023)",>128.000 µg/mL
same,Bacterial MIC,[10],>128.000 µg/mL
same,Bacterial MIC,"[11]; A. baumannii 19606, Week 2 (12/14/2023)",>128.000 µg/mL
same,Bacterial MIC,"[12]; P. aeruginosa 5519, Week 2 (12/14/2023)",>128.000 µg/mL
same,Bacterial MIC,"[13]; E. cloacae 13047, Week 2 (12/14/2023)",>128.000 µg/mL
same,Bacterial MIC,"[14]; S. aureus 25923, Week 2 (12/14/2023)",>128.000 µg/mL
same,Bacterial MIC,[15],>128.000 µg/mL
same,Bacterial MIC,"[16]; P. aeruginosa 27853, Week 2 (12/14/2023)",>128.000 µg/mL
same,Bacterial MIC,"[17]; E. cloacae 35549, Week 2 (12/14/2023)",>128.000 µg/mL
same,Bacterial MIC,[18],>128.000 µg/mL
same,Bacterial MIC,[19],>128.000 µg/mL
same,"Bd inhibition score (percent inhibition), mean",[20]; synthesized peptide 15.625 μg/mL,-10.4305%
same,"Bd inhibition score (percent inhibition), mean",[20]; synthesized peptide 31.25 μg/mL,-6.071%
same,"Bd inhibition score (percent inhibition), mean",[20]; synthesized peptide 62.5 μg/mL,-6.0656%
same,"Bd inhibition score (percent inhibition), mean",[20]; synthesized peptide 125 μg/mL,-13.7553%
same,"Bd inhibition score (percent inhibition), mean",[20]; synthesized peptide 250 μg/mL,-14.8924%
same,"Bd inhibition score (percent inhibition), mean",[20]; synthesized peptide 500 μg/mL,-12.1229%
SGLRGSL [PrMb-Eb19],Suggest solvent (solubility),[1],1.0mg peptide soluble in 1.0ml H2O
same,Bacterial MIC,[2]; Si,>128.000 µg/mL
same,Bacterial MIC,"[3]; 4640, 20 h",>128.000 µg/mL
same,Bacterial MIC,"[4]; ATCC 13883, 20 h",>128.000 µg/mL
same,Bacterial MIC,[5],>128.000 µg/mL
same,Bacterial MIC,"[6]; ATCC 43888, 20 h",>128.000 µg/mL
same,Bacterial MIC,"[7]; ATCC 19434, 20 h",>128.000 µg/mL
same,Bacterial MIC,"[8]; ATCC 17978, 20 h",>128.000 µg/mL
same,Bacterial MIC,"[9]; ATCC 49224, 20 h",>128.000 µg/mL
same,Bacterial MIC,[10],>128.000 µg/mL
same,Bacterial MIC,"[11]; ATCC 19606, 20 h",>128.000 µg/mL
same,Bacterial MIC,"[12]; MRSN 5519, 20 h",>128.000 µg/mL
same,Bacterial MIC,"[13]; ATCC 13047, 20 h",>128.000 µg/mL
same,Bacterial MIC,"[14]; ATCC 25923, 20 h",>128.000 µg/mL
same,Bacterial MIC,[15],>128.000 µg/mL
same,Bacterial MIC,"[16]; ATCC 27853, 20 h",>128.000 µg/mL
same,Bacterial MIC,"[17]; ATCC 35549, 20 h",>128.000 µg/mL
same,Bacterial MIC,[18],>128.000 µg/mL
same,Bacterial MIC,[19],>128.000 µg/mL
same,"Bd inhibition score (percent inhibition), mean",[20]; synthesized peptide 62.5 μg/mL,-38.0157%
